In patent US20240382493A1, “METHODS FOR TREATING SYSTEMIC MASTOCYTOSIS AND GASTROINTESTINAL STROMAL TUMORS” (Blueprint Medicines Corporation, priority 2023, published 2024):
Like-named read-outs stand apart in the source and are kept apart here.

How the values were obtained:
[1] = Clinical study BLU-285-0107: single 100 mg oral dose, severe hepatic impairment vs matched control subjects, plasma PK; conditions: single oral 100 mg; for CL/F GeoMean / AUC(0-t) / AUC(0-inf) / Cmax / Tmax / Vd/F / half-life: total plasma avapritinib; for CLu/F GeoMean / Cumax GeoMean / AUC: unbound plasma avapritinib; for AUC(0-t) / AUC(0-inf) / AUC / Cmax / Tmax / Vd/F / half-life: human, plasma, po, 100 mg; for AUC(0-inf): AUC0-∞ GeoMean; for Cmax: Cmax GeoMean; for Tmax: Tmax median; for Vd/F: Vz/F GeoMean; for half-life: t1/2 arithmetic mean;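 for all read-outs here: severe hepatic impairment meant chronic stable cirrhosis with a Child-Pugh score of 10–15, and each such subject was paired one-to-one with a control of similar age, BMI and sex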
From the text: (§1) Subjects with chronic, stable, severe HI with features of cirrhosis due to any etiology were enrolled, and the Child-Pugh scale was used to classify the severity of liver disease. The scale employs 5 clinical measures of liver disease. Each measure is scored 1 to 3, with 3 indicating most severe derangement. Subjects' scores of 10 to 15 on this scale are classified as having severe hepatic impairment.
(§2) The control subjects were matched in a 1:1 ratio to subjects with severe hepatic impairment for age, body mass index (BMI), and sex variables.

[2] = Post-hoc analysis of pooled data of 343 patients: clearance by hepatic function; format: in vivo, human; conditions: pooled data of 343 patients (284 normal, 53 mild HI, 6 moderate HI)
From the text: As per the current avapritinib labeling, no dose adjustment is recommended for patients with mild or moderate HI.

clinical = conditions: human, in vivo, po, Tmax median treatment difference
From the text: as §1, §2

[3] = patients with severe hepatic impairment; cited from earlier work
[4] = cited from earlier work

Which results are given for `Cn1cc(-c2cc3c(N4CCN(c5ncc([C@@](C)(N)c6ccc(F)cc6)cn5)CC4)ncnn3c2)cn1` [Avapritinib, (S)-1-(4-fluorophenyl)-1-(2-(4-(6-(1-methyl-1H-pyrazol-4-yl)pyrrolo [2,1-f][1,2,4]triazin-4-yl)piperazin-yl)pyrimidin-5-yl)ethan-1-amine]?
CL/F GeoMean ([1]; Matched Control): 15.21 L/h; CLu/F GeoMean ([1]; Matched Control): 1534 L/h; Cumax GeoMean ([1]; Matched Control): 1.197 ng/mL; CL/F GeoMean ([1]; Severe HI): 12.72 L/h; CLu/F GeoMean ([1]; Severe HI): 950.6 L/h; Cumax GeoMean ([1]; Severe HI): 1.293 ng/mL; AUC(0-t) ([1]; AUC0-24 GeoMean, Matched Control): 1610 ng·h/mL; AUC(0-t) ([1]; AUC0-24 GeoMean, Severe HI): 1370 ng·h/mL; AUC(0-t) ([1]; AUC0-240 GeoMean, Matched Control): 6030 ng·h/mL; AUC(0-t) ([1]; AUC0-240 GeoMean, Severe HI): 6500 ng·h/mL; AUC(0-inf) ([1]; Matched Control): 6570 ng·h/mL; AUC(0-inf) ([1]; Severe HI): 7860 ng·h/mL; AUC ([1]; AUCu0-24 GeoMean, Matched Control): 15.9 ng·h/mL; AUC ([1]; AUCu0-24 GeoMean, Severe HI): 18.3 ng·h/mL; AUC ([1]; AUCu0-240 GeoMean, Matched Control): 59.8 ng·h/mL; AUC ([1]; AUCu0-240 GeoMean, Severe HI): 87 ng·h/mL; AUC ([1]; AUCu0-∞ GeoMean, Matched Control): 65.2 ng·h/mL; AUC ([1]; AUCu0-∞ GeoMean, Severe HI): 105 ng·h/mL; Cmax ([1]; Matched Control): 121 ng/mL; Cmax ([1]; Severe HI): 96.6 ng/mL; Tmax ([1]; Matched Control): 2.25 h; Tmax ([1]; Severe HI): 1.5 h; Vd/F ([1]; Matched Control): 1330 L; Vd/F ([1]; Severe HI): 1710 L; half-life ([1]; Matched Control): 64.1 h; half-life ([1]; Severe HI): 96.6 h; clearance between patients with normal liver function, mild HI and moderate HI [2]: similar

With `Cn1cc(-c2cc3c(N4CCN(c5ncc([C@](C)(O)c6ccc(F)cc6)cn5)CC4)ncnn3c2)cn1` [Metabolite A] as the compound, how does the Tmax (clinical) read?
Its Tmax is 14.1 h.

With `Cn1cc(-c2cc3c(N4CCN(c5ncc([C@@](C)(O)c6ccc(F)cc6)cn5)CC4)ncnn3c2)cn1` [Metabolite B] as the compound, how does the Tmax (clinical) read?
The Tmax was 80 h.

What does the source list for `CCOc1cc2ncc(C#N)c(Nc3ccc(OCc4ccccn4)c(Cl)c3)c2cc1NC(=O)/C=C/CN(C)C` [neratinib]?
exposure (AUC) increased [3]: 181%; exposure (Cmax) increased [3]: 173%

What does the source list for `N#Cc1ccccc1-c1cc(-c2ccccn2)cn(-c2ccccc2)c1=O` [perampanel]?
AUC higher compared to normal ([4]; patients with mild HI): 50%; AUC higher compared to normal ([4]; patients with moderate HI): 2.5 fold
